# Target: vascular angiotensin II receptors
# Experiment: 125I-angiotensin II radioligand binding assay
# Settings: particular fraction from rat mesenteric arteries, 80 pM 125I-angiotensin II, 1 hour at 25°C; concentration needed to displace 50% of the total specifically bound angiotensin II
# Method: Angiotensin II antagonist activity of the compounds of Formula (I) is assessed by in vitro and in vivo methods. In vitro antagonist activity is determined by the ability of the compounds to compete with ^125I-angiotensin II for binding to vascular angiotensin II receptors and by their ability to antagonize the contractile response to angiotensin II in the isolated rabbit aorta. In vivo activity is evaluated by the efficacy of the compounds to inhibit the pressor response to exogenous angiotensin II in conscious rats and to lower blood pressure in a rat model of renin dependent hypertension.
# The radioligand binding assay is a modification of a method previously described in detail (Gunther et al., Circ. Res. 47:278, 1980). A particular fraction from rat mesenteric arteries is incubated in Tris buffer with 80 pM of ^125I-angiotensin II with or without angiotensin II antagonists for 1 hour at 25°C. The incubation is terminated by rapid filtration and receptor bound ^125I-angiotensin II trapped on the filter is quantitated with a gamma counter. The potency of angiotensin II antagonists is expressed as the IC50 which is the concentration of antagonist needed to displace 50% of the total specifically bound angiotensin II.
compound,measurement,value
"CCCCc1ncc(/C=C(\Cc2cccs2)C(=O)O)n1-c1ccc(C(=O)O)cc1 [Example 1, (E)-3-[2-n-Butyl-1-{4-carboxyphenyl}-1H-imidazo-5-yl]-2-(2-thienyl)methyl-2-propenoic acid]",IC50,~0.25 µM

# From EP0563238B1, “IMIDAZOLYL-ALKENOIC ACIDS” (SMITHKLINE BEECHAM CORPORATION, priority 1990, dated 1992)
